Assay results published in PubChem BioAssay (NCI).
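Interpolation was linear, between the two tested concentrations surrounding the appropriate level; five concentrations were tested over 48 hours in 96-well plates. The concentration for 50% growth inhibition is given as GI50. TGI is the concentration that stops growth completely.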

Legend:
Assay in all cases: growth of human tumour cells (NCI), 48 h
NCI-H23 lung = system: NCI-H23 lung
K-562 leukemia = system: K-562 leukemia
PC-3 prostate = system: PC-3 prostate
SNB-19 CNS = system: SNB-19 CNS
MCF7 breast = system: MCF7 breast
SR leukemia = system: SR leukemia
A549 NSCLC = system: A549 NSCLC
SNB-75 CNS = system: SNB-75 CNS
MDA-MB-231 breast = system: MDA-MB-231 breast
UACC-257 melanoma = system: UACC-257 melanoma
T-47D breast = system: T-47D breast
COLO 205 colon = system: COLO 205 colon
HOP-62 NSCLC = system: HOP-62 NSCLC
MALME-3M melanoma = system: MALME-3M melanoma
BT-549 breast = system: BT-549 breast
SN12C renal = system: SN12C renal
OVCAR-4 ovarian = system: OVCAR-4 ovarian
UACC-62 melanoma = system: UACC-62 melanoma
OVCAR-3 ovarian = system: OVCAR-3 ovarian
CAKI-1 renal = system: CAKI-1 renal
OVCAR-5 ovarian = system: OVCAR-5 ovarian
HT29 colon = system: HT29 colon
IGROV1 ovarian = system: IGROV1 ovarian
HCC-2998 colon = system: HCC-2998 colon
EKVX NSCLC = system: EKVX NSCLC
SK-MEL-28 melanoma = system: SK-MEL-28 melanoma
SK-OV-3 ovarian = system: SK-OV-3 ovarian
786-0 renal = system: 786-0 renal
SK-MEL-5 melanoma = system: SK-MEL-5 melanoma
OVCAR-8 ovarian = system: OVCAR-8 ovarian
U251 CNS = system: U251 CNS
SF-539 CNS = system: SF-539 CNS
A498 renal = system: A498 renal
HCT-15 colon = system: HCT-15 colon
HS 578T breast = system: HS 578T breast
DU-145 prostate = system: DU-145 prostate
ACHN renal = system: ACHN renal
SF-268 CNS = system: SF-268 CNS
NCI/ADR-RES ovarian = system: NCI/ADR-RES ovarian
MDA-MB-435 = system: MDA-MB-435
NCI-H226 lung = system: NCI-H226 lung
LOX IMVI melanoma = system: LOX IMVI melanoma
NCI-H522 lung = system: NCI-H522 lung
RPMI-8226 leukemia = system: RPMI-8226 leukemia
M14 melanoma = system: M14 melanoma
NCI-H460 lung = system: NCI-H460 lung
HL-60(TB) leukemia = system: HL-60(TB) leukemia
CCRF-CEM leukemia = system: CCRF-CEM leukemia
KM12 colon = system: KM12 colon
UO-31 renal = system: UO-31 renal
RXF 393 renal = system: RXF 393 renal
SK-MEL-2 melanoma = system: SK-MEL-2 melanoma
SW-620 colon = system: SW-620 colon
TK-10 renal = system: TK-10 renal
HCT-116 colon = system: HCT-116 colon
SF-295 CNS = system: SF-295 CNS
MOLT-4 leukemia = system: MOLT-4 leukemia

Oc1nc(N2CCOCC2)sc1/C=C1\C=Nc2ccccc21
GI50 (NCI-H23 lung): > 100 µM | TGI (NCI-H23 lung): > 100 µM | GI50 (K-562 leukemia): > 100 µM | TGI (K-562 leukemia): > 100 µM | GI50 (PC-3 prostate): > 100 µM | TGI (PC-3 prostate): > 100 µM | GI50 (SNB-19 CNS): > 100 µM | TGI (SNB-19 CNS): > 100 µM | GI50 (MCF7 breast): > 100 µM | TGI (MCF7 breast): > 100 µM | GI50 (SR leukemia): 82 µM | TGI (SR leukemia): > 100 µM | GI50 (A549 NSCLC): > 100 µM | TGI (A549 NSCLC): > 100 µM | GI50 (SNB-75 CNS): 64.8 µM | TGI (SNB-75 CNS): > 100 µM | GI50 (MDA-MB-231 breast): > 100 µM | TGI (MDA-MB-231 breast): > 100 µM | GI50 (UACC-257 melanoma): > 100 µM | TGI (UACC-257 melanoma): > 100 µM | GI50 (T-47D breast): > 100 µM | TGI (T-47D breast): > 100 µM | GI50 (COLO 205 colon): > 100 µM | TGI (COLO 205 colon): > 100 µM | GI50 (HOP-62 NSCLC): > 100 µM | TGI (HOP-62 NSCLC): > 100 µM | GI50 (MALME-3M melanoma): > 100 µM | TGI (MALME-3M melanoma): > 100 µM | GI50 (BT-549 breast): > 100 µM | TGI (BT-549 breast): > 100 µM | GI50 (SN12C renal): > 100 µM | TGI (SN12C renal): > 100 µM | GI50 (OVCAR-4 ovarian): > 100 µM | TGI (OVCAR-4 ovarian): > 100 µM | GI50 (UACC-62 melanoma): > 100 µM | TGI (UACC-62 melanoma): > 100 µM | GI50 (OVCAR-3 ovarian): > 100 µM | TGI (OVCAR-3 ovarian): > 100 µM | GI50 (CAKI-1 renal): > 100 µM | TGI (CAKI-1 renal): > 100 µM | GI50 (OVCAR-5 ovarian): > 100 µM | TGI (OVCAR-5 ovarian): > 100 µM | GI50 (HT29 colon): 65.2 µM | TGI (HT29 colon): > 100 µM | GI50 (IGROV1 ovarian): > 100 µM | TGI (IGROV1 ovarian): > 100 µM | GI50 (HCC-2998 colon): > 100 µM | TGI (HCC-2998 colon): > 100 µM | GI50 (EKVX NSCLC): > 100 µM | TGI (EKVX NSCLC): > 100 µM | GI50 (SK-MEL-28 melanoma): > 100 µM | TGI (SK-MEL-28 melanoma): > 100 µM | GI50 (SK-OV-3 ovarian): > 100 µM | TGI (SK-OV-3 ovarian): > 100 µM | GI50 (786-0 renal): > 100 µM | TGI (786-0 renal): > 100 µM | GI50 (SK-MEL-5 melanoma): > 100 µM | TGI (SK-MEL-5 melanoma): > 100 µM | GI50 (OVCAR-8 ovarian): > 100 µM | TGI (OVCAR-8 ovarian): > 100 µM | GI50 (U251 CNS): > 100 µM | TGI (U251 CNS): > 100 µM | GI50 (SF-539 CNS): > 100 µM | TGI (SF-539 CNS): > 100 µM | GI50 (A498 renal): > 100 µM | TGI (A498 renal): > 100 µM | GI50 (HCT-15 colon): > 100 µM | TGI (HCT-15 colon): > 100 µM | GI50 (HS 578T breast): > 100 µM | TGI (HS 578T breast): > 100 µM | GI50 (DU-145 prostate): > 100 µM | TGI (DU-145 prostate): > 100 µM | GI50 (ACHN renal): > 100 µM | TGI (ACHN renal): > 100 µM | GI50 (SF-268 CNS): > 100 µM | TGI (SF-268 CNS): > 100 µM | GI50 (NCI/ADR-RES ovarian): > 100 µM | TGI (NCI/ADR-RES ovarian): > 100 µM | GI50 (MDA-MB-435): > 100 µM | TGI (MDA-MB-435): > 100 µM | GI50 (NCI-H226 lung): > 100 µM | TGI (NCI-H226 lung): > 100 µM | GI50 (LOX IMVI melanoma): > 100 µM | TGI (LOX IMVI melanoma): > 100 µM | GI50 (NCI-H522 lung): > 100 µM | TGI (NCI-H522 lung): > 100 µM | GI50 (RPMI-8226 leukemia): > 100 µM | TGI (RPMI-8226 leukemia): > 100 µM | GI50 (M14 melanoma): > 100 µM | TGI (M14 melanoma): > 100 µM | GI50 (NCI-H460 lung): > 100 µM | TGI (NCI-H460 lung): > 100 µM | GI50 (HL-60(TB) leukemia): > 100 µM | TGI (HL-60(TB) leukemia): > 100 µM | GI50 (CCRF-CEM leukemia): > 100 µM | TGI (CCRF-CEM leukemia): > 100 µM | GI50 (KM12 colon): > 100 µM | TGI (KM12 colon): > 100 µM | GI50 (UO-31 renal): > 100 µM | TGI (UO-31 renal): > 100 µM | GI50 (RXF 393 renal): > 100 µM | TGI (RXF 393 renal): > 100 µM | GI50 (SK-MEL-2 melanoma): > 100 µM | TGI (SK-MEL-2 melanoma): > 100 µM | GI50 (SW-620 colon): > 100 µM | TGI (SW-620 colon): > 100 µM | GI50 (TK-10 renal): > 100 µM | TGI (TK-10 renal): > 100 µM | GI50 (HCT-116 colon): > 100 µM | TGI (HCT-116 colon): > 100 µM | GI50 (SF-295 CNS): > 100 µM | TGI (SF-295 CNS): > 100 µM | GI50 (MOLT-4 leukemia): > 100 µM | TGI (MOLT-4 leukemia): > 100 µM
